{"source": "patent US20090028842A1", "about": "“Dekkera/Brettanomyces Cytosine Deaminases And Their Use” (ZGene A/S, priority 2005, published 2009)", "molecules": {"B1": {"name": "Db CD (PZG893): cytosine deaminase from Dekkera bruxellensis (SEQ ID NO 2), recombinant his-tagged protein (protein, listed as Dekkera bruxellensis)", "chain": "MTFDDKLGMQVAFEEAKKGFEEGGVPIGACLLTEEGKVIGRGHNMRVQKSSATLHGETSCFENAGRLPASVYKKCTLYTTLSPCSMCSGAALLFKIPRIVLGENETFVGAEKWLESNGVEVVNVHNKECKNLMDRFIKEKPEVWNEDIGE", "modifications": "His tag"}}, "key": {"D. bruxellensis": {"system": "D. bruxellensis", "assay": "Growth of D. bruxellensis on plates containing 5-FC", "format": "cell-based, Dekkera bruxellensis", "conditions": "after 5 days", "method": "(§1) The yeast strains used in this work are: Dekkera bruxellensis (Y872, CBS 1943), D. bruxellensis (Y879, CBS 2499), D. bruxellensis (CBS 4480, CBS 4481), D. anomala (CBS 76, CBS 77, CBS 1938, CBS 1947), Brettanomyces nanus (CBS 1945), B. nanus (CBS 1955, CBS 1956), M. reukauffii (CBS 2266), B. custersianus (CBS 4805), B. naardensis (CBS 6042), S. kluyveri Y057 (NRRL Y-12651), and S. cerevisiae Y051 (NRRL Y-12632). Yeast strains were grown at 25° in YPD medium (1% yeast extract, 2% bacto peptone, 2% glucose) or in defined minimal (SD) medium (1% succinic acid, 0.6% NaOH, 2% glucose, 0.67% yeast nitrogen base without amino acids from Difco). When indicated, (NH4)2SO4 was replaced with 0.1% cytosine as the sole nitrogen source giving N-minimal medium. The growth rate was determined in liquid medium by following the optical density at 600 nm. The E. coli strain TOP10 (Invitrogen) was used for plasmid amplification. Bacteria were grown at […] in Luria-Bertani medium supplemented with 100 mg/l of ampicillin for selection. The E. coli BL21-DE3 (Invitrogen) strain was used for heterologous protein expression.\n(§2) The majority of yeast can utilize cytosine as sole source of nitrogen by using CD to cleave cytosine to ammonia (a source of nitrogen) and uracil. To test for the ability of Dekkera yeast for growth on cytosine, Y872 was spotted on N-minimal media containing 0.1% cytosine. […]"}, "S. cerevisiae": {"system": "S. cerevisiae", "assay": "Growth of S. cerevisiae on plates containing 5-FC", "format": "cell-based, Saccharomyces cerevisiae", "method": "as §1, §2"}, "[1]": {"system": "Dekkera/Brettanomyces strains", "assay": "Growth of various Dekkera/Brettanomyces strains on plates containing 5-FC", "format": "cell-based", "conditions": "all tested Dekkera and Brettanomyces species, after 5 days", "method": "as §1\n(§3) In FIG. 2 it can be seen that all the tested Dekkera/Brettanomyces strains are particularly susceptible to 5-FC, as growth is inhibited at 0.1 or at least at 0.36 μM 5.FC. For comparison, S. cerevisiae (FIG. 1) and M. reukauffii (FIG. 2) strains are included."}, "Metschnikowia reukauffii": {"system": "Metschnikowia reukauffii", "assay": "Growth of control strain Metschnikowia reukauffii on plates containing 5-FC", "format": "cell-based", "conditions": "0.1 or 0.36 μM 5-FC, 5 days", "method": "as §1, §3"}, "U87MG": {"system": "U87MG", "assay": "XTT cell proliferation assay, untransduced U87MG", "format": "cell-based", "conditions": "Homo sapiens, U-87 MG, 96-120 hours of drug exposure", "method": "(§4) Cancer cells were purchased from the American Type Culture Collection. Cells were cultured in RPMI, E-MEM or D-MEM with 10% (v/v) Australian originated foetal calf serum and 1 ml/l of gentamicin. Cells were grown at 37° C. in a humidified incubator with a gas phase of 5% CO2. The cells were transduced with the retrovirus containing medium mixed with 5 μg/ml of Polybrene, incubated for 48 hours and then cultured continuously for 3 weeks in the presence of 300-400 μg/ml Genetecin® (Life Technologies Inc.).\n(§5) Cells were plated at densities range of 1.500-3.500 cells/well in 96-well plates coated with poly-L-lysine (Sigma). 5-FC was added after 24 hours of incubation. Each experiment was performed in four replicates. Cell survival was assayed after 96-120 hours of drug exposure by XTT cell proliferation kit (Roche). The data was corrected for background media-only absorbance where after the 50% cell killing drug concentration (IC50 value) was calculated using SigmaPlot® (SPSS Science, Dyrberg Trading, Denmark)."}, "MCF7": {"system": "MCF7", "assay": "XTT cell proliferation assay, untransduced MCF7", "format": "cell-based", "conditions": "Homo sapiens; untransduced MCF7, 96-120 hours of drug exposure", "method": "as §4, §5"}, "PANC-1": {"system": "PANC-1", "assay": "XTT cell proliferation assay, untransduced PANC-1", "format": "cell-based", "conditions": "Homo sapiens; untransduced PANC-1, 96-120 hours of drug exposure", "method": "as §4, §5"}, "HT-29": {"system": "HT-29", "assay": "XTT cell proliferation assay, untransduced HT-29", "format": "cell-based", "conditions": "Homo sapiens; untransduced HT-29, 96-120 hours of drug exposure", "method": "as §4, §5"}, "[2]": {"system": "MCF7 cell line transduced with pLCXSN", "assay": "XTT cell proliferation assay, MCF7 transduced with empty vector pLCXSN", "format": "cell-based", "conditions": "Homo sapiens", "text": "(§6) ORFs were amplified with Accuzyme DNA polymerase (Bioline) using primers with designed flanking restriction enzyme sites and containing Kozak sequence at 5′ end. D. bruxellensis CD constructs were cloned into the retrovirus vector pLCXSN. The vector is based on pLXSN (Clontech) to which the CMV promoter has been cloned into the polylinker site to form pLCXSN. The constructs obtained was named DbCDCvir (PZG917). pLCXSN alone was used as a control. The plasmids were purified using the Qiagen plasmid kit (QIAGEN) and DNA sequences were verified by DNA sequence determination. HE 293 T packaging cells (ATCC CRL-11268) were cultured at 37° C. in OPTIMEM 1 medium (Life Technologies, Inc.) The constructed retrovirus vectors were transfected into the packaging cells using LipofectAMINE PLUS (Life Technologies, Inc.) according to the protocol provided by the supplier. The medium from the transfected cells was collected 48 hours after transfection, filtered through a 0.45 μm filter, pelleted by ultracentrifugation (50.000×g, 90 minutes at 4° C.) and dissolved in D-MEM.\nCancer cells were purchased from the American Type Culture Collection. Cells were cultured in RPMI, E-MEM or D-MEM with 10% (v/v) Australian originated foetal calf serum and 1 ml/l of gentamicin. Cells were grown at 37° C. in a humidified incubator with a gas phase of 5% CO2. […]"}, "[3]": {"system": "MCF7 cell line transduced with Db CD gene", "assay": "XTT cell proliferation assay, MCF7 transduced with D. bruxellensis cytosine deaminase", "format": "cell-based, human", "text": "as §6, §4, §5"}, "[4]": {"system": "Dekkera/Brettanomyces yeasts", "assay": "Sensitivity of Dekkera/Brettanomyces yeasts to G418", "format": "cell-based", "conditions": "addition of 200 μg/ml; almost all yeasts tested", "text": "There are no suitable auxotrophic markers or efficient transformation system to work with these yeasts. […] Using degenerative primers described in this study it was not possible to amplify CD genes from D. anomala, B. nanus, B. naardenensis and B. custersianus probably due to presence of introns in these genes. Therefore we designed a selection system based on Dekkera bruxellensis CD1 promoter and G418 resistance marker coding for 3′aminoglycoside-phosphotransferase. G418 is a ribosomal inhibitor in many eukaryotic cells but many yeast species are not sensitive to G418. However, almost all Dekkera/Brettanomyces yeasts tested were sensitive to addition of 200 μg/ml. Since G418 cannot be used in medium with high salt concentration (like SD medium) use of CD1 promoter which had activity in YPD medium (low salt) will permit expression of G418 gene and ultimately lead to resistance to G418 and enable direct selection of yeast colonies containing this gene. Cloning strategy was as described: pYES2 vector was cut with AgeI/HindIII restriction enzymes and fragment of app. 440 bp containing GAL promoter was removed. Promoter of 1075 bp from Y872 CD1 gene was cloned into AgeI/HindIII site resulting in pDbCD1p plasmid. The ORF from G418 gene (Acc. nr. S78175) was cloned under control of CD1 promoter into BamHI/EcoRI site. […]"}, "[5]": {"assay": "CD activities with purified his-tagged proteins", "format": "biochemical", "conditions": "purified his-tagged protein, 37° C., cytosine 500 μM, triplicates, mean with standard deviation", "method": "For recombinant protein expression, E. coli cells were grown to a density of A600 nm=0.5-0.6 in LB medium supplemented with 100 μg/ml ampicillin, and the expression was induced with 10 μM IPTG for 8 h at 25° C. The cells were harvested by centrifugation, and the pellet was resuspended in 25 ml ice-cold binding buffer A […] (50 mM sodium phosphate pH 8.0; 300 mM NaCl; 10% glycerol; 25 mM imidazole) containing protease inhibitor cocktail (Complete™-EDTA free from Roche Diagnostics). The cells were homogenized using a French Press, subjected to centrifugation at 12,000×g for 30 minutes (4° C.), filtered through a […] Whatman glass microfiber filter and a […] cellulose acetate filter, and loaded onto a 5 ml Ni^2+-NTA column (Qiagen). […]\nBacteria or cell lines were grown as described, harvested and stored at −80° C. until activity testing. […] Cytosine deaminase activities were determined spectrophotometrically by monitoring the absorbance decrease at 286 nm (Δε286=−0.68 mM^−1 cm^−1) resulting from the deamination of cytosine to uracil. […]\nTo characterize the substrate specificities of yeast CDs, purified proteins were measured at 37° C. and fixed cytosine concentration and assays was performed as described in Example 1 (Enzyme assays) (Table 3)."}, "[6]": {"format": "physicochemical", "method": "Purified and his-tagged CD from D. bruxellensis and S. cerevisiae CD were assayed after different periods of storage at 50° C. and 37° C. (FIGS. 8a and 8b). Indeed, D. bruxellensis CD was extremely stable at 50° C. when compared to S. cerevisiae CD which lost all activity after only 4 minutes. Half life for D. bruxellensis CD at 50° C. was app. 3 hours (FIG. 8a). […] It should be observed that the temperature stability of the proteins without his-tags could be different."}}, "data": [{"molecule": "Nc1nc(=O)[nH]cc1F", "note": "[5-FC, 5-fluorocytosine]", "values": [{"measurement": "5-FC concentration at which growth inhibition was observed", "setting": "D. bruxellensis", "result": 0.1, "unit": "µM"}, {"measurement": "5-FC concentration at which there was no visible growth", "setting": "D. bruxellensis", "result": 0.36, "unit": "µM"}, {"measurement": "Growth on plates with 5-FC", "setting": "S. cerevisiae; S. cerevisiae control strain, 0.1 or 0.36 μM 5-FC, 5 days", "result": "not inhibited"}, {"measurement": "5-FC concentration at which growth was first inhibited", "setting": "S. cerevisiae; S. cerevisiae, plates, after 5 days", "result": 1, "unit": "µM"}, {"measurement": "5-FC concentration at which growth inhibition was observed", "setting": "[1]", "result": "≤ 0.36", "unit": "µM"}, {"measurement": "Growth on plates with 5-FC", "setting": "Metschnikowia reukauffii", "result": "not inhibited"}, {"measurement": "IC50", "setting": "U87MG", "result": "2000 to 5000", "unit": "µM"}, {"measurement": "IC50", "setting": "MCF7", "result": "2000 to 5000", "unit": "µM"}, {"measurement": "IC50", "setting": "PANC-1", "result": "2000 to 5000", "unit": "µM"}, {"measurement": "IC50", "setting": "HT-29", "result": "2000 to 5000", "unit": "µM"}, {"measurement": "IC50", "setting": "[2]", "result": 9290, "unit": "µM"}, {"measurement": "IC50", "setting": "[3]; Homo sapiens, MCF7, MCF7 transduced with D. bruxellensis cytosine deaminase", "result": 2400, "unit": "µM"}, {"measurement": "IC50", "setting": "[3]; MCF7 transduced with D. bruxellensis cytosine deaminase", "result": 2440, "unit": "µM"}, {"measurement": "sensitivity increase towards 5-FC", "setting": "[3]; MCF7 with Db CD versus empty vector", "result": 4, "unit": "fold"}]}, {"molecule": "CN[C@@H]1[C@@H](O)[C@@H](O[C@@H]2[C@@H](O)[C@H](O[C@H]3O[C@H]([C@@H](C)O)[C@@H](O)[C@H](O)[C@H]3N)[C@@H](N)C[C@H]2N)OC[C@]1(C)O", "note": "[G418]", "values": [{"measurement": "Sensitivity to G418", "setting": "[4]", "result": "sensitive"}]}, {"molecule": "B1", "values": [{"measurement": "CD activity, Cytosine", "setting": "[5]", "result": "176.5 ± 5.3", "unit": "U/mg/min"}, {"measurement": "Half life", "setting": "[6]", "result": "~3", "unit": "h"}, {"measurement": "Stability compared to S. cerevisiae CD", "setting": "[6]", "result": "more stable"}]}]}
